Assay results as given in PMC5393024, “Discovery and characterization of natural tropolones as inhibitors of the antibacterial target CapF from Staphylococcus aureus” (Scientific Reports, 2015).

Columns and labels:
[1] = system: CapF; test: HPLC-based inhibition assay (CapE/CapF coupled reaction); format: biochemical, Staphylococcus aureus; conditions: 1 mM compound, 37 °C, 2 hours
Experimental: (§1) For that purpose, an HPLC-based assay monitoring the consumption of substrate and the appearance of product was employed (Fig. 2b)[12]. Whereas in the absence of 3-isopropenyl-tropolone the substrate was converted into product with nearly quantitative yield (91%), in the presence of 1 mM 3-isopropenyl-tropolone the peaks corresponding to substrate and product were largely absent (their combined areas were <18%). Instead, a large peak corresponding to the byproduct generated by the enzyme CapE under thermodynamic control was observed (80% yield as judged from the area under the curve). To confirm that inhibition of 3-isopropenyl-tropolone is specific for CapF we performed an additional experiment employing only CapE, which is the enzyme generating the substrate for CapF in the functional assay (Supplementary Information Figure S2).
For the HPLC-based inhibition assay, a solution containing 1.0 μM CapE, 0.02 μM CapF, 250 μM UDP-D-GlcNAc, 250 μM NADPH, and 1 mM compound in HBS buffer supplemented with 0.005% (v/v) Tween-20 and 5% (v/v) DMSO were incubated at 37 °C for 2 hours. The reaction was stopped by addition of 100 μL of ice-cold phenol/chloroform/isoamyl alcohol in a 25:24:1 […]. The supernatant containing the products of the reaction was mixed with 100 μL of chloroform and examined by HPLC using a CarboPac PA1 anion-exchange column (Dionex) as described previously. […]

[2] = system: apo-CapF (Zn^2+-depleted); test: ITC binding to Zn2+-depleted CapF (1 mM EDTA); parameters: species or system Staphylococcus aureus; conditions: 150 μM CapF, 1.65 mM inhibitor
Excerpt: Because tropolone and its analogs have been described as metal chelators in proteins, we anticipated that binding of the inhibitor to CapF is governed by the Zn^2+ ion present in the cupin domain[12]. To confirm this hypothesis, we performed two different types of experiments. First, we determined the binding properties of 3-isopropenyl-tropolone to apo-CapF (i.e. Zn^2+-depleted CapF) and to holo-CapF (reconstituted with Zn^2+) by isothermal titration calorimetry (ITC). The stoichiometry is consistent with a 1:1 binding model.
Figure 3 Binding of 3-isopropenyl-tropolone to CapF requires Zn^2+. CapF (150 μM) reconstituted with Zn^2+ was titrated with 1.65 mM inhibitor in the absence (a) or the presence (b) of 1 mM EDTA. The upper panels correspond to the titration data, and the lower panels to the integrated binding isotherms. (c) Binding competition assay. CapF (1.0 μM) reconstituted with Zn^2+ in the presence of the Zn^2+-sensitive dye FluoZin-3 (1.0 μM) was titrated with 3-isopropenyl-tropolone (λEX = 490 nm; λEM = 520 nm).
Binding constants and thermodynamic parameters of the interaction between CapF and fragment compounds were determined with an iTC200 instrument (GE Healthcare) at 25 °C. Samples were equilibrated in a buffer composed of 10 mM HEPES (pH 7.4) and 150 mM NaCl supplemented with 5% (v/v) DMSO. CapF at 150–270 μM was titrated with compounds at 0.5–1.65 mM. […]

[3] = system: CapF; test: NADPH consumption assay (absorbance at 340 nm); format: biochemical, Staphylococcus aureus; conditions: 0.02 μM CapF, 1.0 μM CapE, 125 μM UDP-D-GlcNAc, 250 μM NADPH, 37 °C
Experimental: A second assay monitoring the consumption of NADPH corroborates the inhibitory effect of 3-isopropenyl-tropolone (Fig. 2c). This assay is sensitive to the NADPH consumed by the SDR domain during the second reaction catalyzed by CapF (reduction step). […] Nevertheless, additional experiments were required to corroborate that idea (see below).
The enzymatic performance of CapF was evaluated by examining the consumption of NADPH spectrophotometrically, or by monitoring the disappearance of substrate and the formation of product by HPLC[9][12]. First, the time-dependent consumption of NADPH (monitored from a decrease of adsorption at 340 nm) was carried out in 384-well plates at a final volume of 50 μL. The solution contained 1.0 μM CapE, 0.02 μM CapF, 125 μM UDP-D-GlcNAc (substrate), 250 μM NADPH and fragment compounds at various concentrations in HBS supplemented with 0.005% (v/v) Tween-20 and 5% (v/v) DMSO. Each reaction mixture was incubated at 37 °C and the absorption at 340 nm was measured with a plate reader (PHERAstar, BMG Labtech, Durham, NC).
Figure S7. (a) Structure of compounds employed. (b-d) Time course of NADPH consumption by CapF in the presence of (b) tropolone, (c) 4-isopropyl-tropolone, and (d) 2-Cl-tropone. Increasing the concentration of compounds decreases the rate of consumption of NADPH. (e-g) Inhibition after two hours for (e) tropolone, (f) 4-isopropyl-tropolone, and (g) 2-Cl-tropone. Concentration of CapE and CapF was 1.0 µM and 0.02 µM, respectively. Concentration of NADPH and UDP-D-GlcNAc was 250 µM and 125 µM, respectively. The change of absorbance was calculated with respect to a control assay in the absence of CapF.
(§2) (1 picture or pasted object on this page, not shown here)

[4] = system: CapE; test: HPLC assay employing only CapE; format: biochemical, Staphylococcus aureus; conditions: CapF not present
Experimental: as §1
Figure S2. Elution profile of compounds after incubation of the substrate UDP-D-GlcNAc with
CapE in the absence (red line) and presence (black line) of 3-isopropenyl-tropolone. In this
experiment CapF was not present. Experimental conditions are described in the Methods section.
The blue, red and green triangles indicate the elution peaks of product, substrate, and by-product,
as §2

[5] = system: CapFΔ57-70; test: DSC thermal stability of CapFΔ57-70; format: binding, Staphylococcus aureus; conditions: 24 μM protein, 240 μM inhibitor
Experimental: Thermal stability of CapF was examined by DSC in a ultrasensitive VP-capillary micro-calorimeter (Microcal). Prior to the experiment the protein was equilibrated in a buffer composed of 50 mM HEPES (pH 7.5), 50 mM NaCl and 5% DMSO. The concentration of protein and inhibitor were adjusted to 24 μM and 240 μM, respectively. The samples were heated between 10 and 110 °C at a scan rate of 1 °C/min. Data analysis was carried out with ORIGIN7 using a two-state transition model.
Figure S6. Thermal stability of CapF examined with DSC. (a) CapFΔ57-70, and (b) CapFΔ57-70
in the presence of 3-isopropenyl-tropolone. Concentration of CapF and inhibitor was 24 µM and
240 µM, respectively. Experimental data and fitting curves are represented in black and red lines,
as §2

## C=C(C)c1ccccc(=O)c1O [3-isopropenyl-tropolone]
[1]
  yield of byproduct generated by CapE (area under the curve): 80%
[1]; 91% product without inhibitor
  combined areas of substrate and product peaks: < 18%
[2]
  binding to apo-CapF by ITC: does not bind
[3]
  inhibition of NADPH consumption: rate of consumption of NADPH slowed down as the concentration of inhibitor increases
[3]; listed as 3-isopropylen-tropolone
  inhibition of NADPH consumption: inhibited the consumption of NADPH in a concentration-dependent basis
[4]
  HPLC profile of the reaction products of CapE in presence of inhibitor: not altered
[5]
  ΔTM (decrease in thermal stability): 6.3 ± 0.2 °C
[5]; CapFΔ57-70 alone 60.7 ± 0.1
  TM: 54.4 ± 0.1 °C
